Experiments:
[1] = test system: STZ (130 mg/kg) diabetic pigs; assay: Two-week oral metformin treatment of STZ diabetic pigs: postprandial plasma glucose and insulin, body weight, urinary glucose excretion; type: in vivo, pig
Procedure: (§1) Protocol 5: insulin-mediated whole body glucose disposal, after a two-week placebo or metformin (twice 1.5 g per day) oral treatment period under conditions of iso-energetic feeding, was studied with the hyperinsulinemic (2 mU/kg/minute) euglycemic clamp technique in 14 STZ (130 mg/kg) diabetic pigs.
Fasting blood samples were taken before the start of hyperinsulinemic clamp experiments and postprandial blood samples were taken two to three hours after a morning meal in the week following a clamp study.
Plasma insulin concentration was measured using a Delfia assay (test kit No. B080-1101 by Perkin Elmer Life Sciences, trust by Wallac Oy, Turku, Finland). This specific pig insulin assay was validated using pig insulin standards. Plasma and urine glucose concentrations were analyzed enzymically on an autoanalyzer of Radiometer (ABL and AML, Copenhagen, Denmark). Urine was collected in buckets containing 0.5 grams Halamid-d (sodium-p-toluenesulfonchloramide, Akzo Nobel Chemicals, Amersfoort, NL) to prevent microbial breakdown of glucose. Urine volume was registered over a given interval in order to calculate the rate of urinary glucose excretion. Urine samples (0.5 mL) were stored at −20° C. for later glucose analyses. Ketones (acetoacetic acid) were determined in fresh urine by a reagent strip test (Ketostix, Bayer Diagnostics, Mijdrecht, NL).

[2] = test system: STZ (130 mg/kg) diabetic pigs; assay: Hyperinsulinemic euglycemic clamp in STZ diabetic pigs after two-week metformin treatment; type: in vivo, pig
Procedure: as §1
After overnight fasting, at t=0 minute, insulin was administered as a prime—(17 or 34 mU/kg) continuous (1 or 2 mU/kg/minute) infusion for three hours in normal pigs. Simultaneously, a variable infusion of a 33% D-glucose solution was started and adjusted every ten minutes to maintain the plasma glucose concentration at euglycemic levels and a 6,6-^2H-glucose solution was given as a prime—(216 mg) continuous (3.6 mg/minute). Steady-state conditions were achieved within 90 minutes after initiation of the hyperinsulinemic clamp and steady-state calculations were carried out during the last hour of the clamp (t=120, 135, 150, 165 and 180 minutes). In hyperglycemic diabetic pigs, insulin was given as a prime—(34 or 136 mU/kg) continuous (2 or 8 mU/kg/minute) infusion for five hours. After reaching euglycemic levels, a variable infusion of a 33% D-glucose solution was started and adjusted every ten minutes to maintain the plasma glucose concentration at euglycemia. At t=2 hours, 6,6-^2H-glucose was administered as a prime— (216 mg) continuous (3.6 mg/minute) infusion for the last three hours of the clamp in diabetic pigs. Steady-state conditions were achieved during the last hour of the clamp and steady-state calculations were carried out at (t=240, 255, 270, 285 and 300 minutes).

rodent = rodent studies, relatively high doses (100 to 500 mg/kg); cited from earlier work
[3] = metformin twice 1.5 g per day oral, two weeks
[4] = after two weeks metformin, insulin 2 mU/kg/minute

## CN(C)C(=N)N=C(N)N [Metformin, metformin]
[1]; after 14 days of metformin
  Reduction in postprandial plasma glucose compared to placebo-treated pigs: 30%
[1]; metformin group, baseline
  Postprandial plasma glucose, before treatment: 31.0 ± 5.8 mmol/L
  Postprandial plasma insulin, before treatment: 1 ± 0 mU/L
[1]; [3]
  Postprandial plasma glucose, at end of treatment: 24.9 ± 2.2 mmol/L
  Postprandial plasma insulin, at end of treatment: 3 ± 1 mU/L
[2]; after two weeks metformin
  Fasting plasma glucose: 14.7 ± 1.5 mmol/L
  Fasting plasma insulin: 11 ± 6 mU/L
  Fasting plasma insulin, range: range (3-37) mU/L
  Increase in insulin-stimulated whole body glucose disposal compared to placebo-treated diabetic pigs: 60%
  Reduction in fasting plasma glucose compared to placebo-treated diabetic pigs: 24%
[2]; [4]
  Steady-state clamp glucose infusion rate (whole body glucose disposal): 9.4 ± 2.2 mg/kg/min
  Steady-state clamp plasma glucose: 5.3 ± 0.3 mmol/L
  Steady-state clamp plasma insulin: 42 ± 7 mU/L
  Time to reach euglycemia in diabetic pigs: 105 ± 28 min
[2]; after two weeks metformin, insulin 2 mU/kg/minute, listed as metformin
  Steady-state clamp glucose infusion rate (whole body glucose disposal): 9.4 mg/kg/min
[2]; similar insulin stimulation
  Whole body glucose disposal, metformin group compared to placebo group: 1.6 fold
rodent
  Effect on glucose homeostasis: immediate (within days) effect
